Laboratory results published in US20230339977A1, “SUBSTITUTED HETEROARYL COMPOUND, AND COMPOSITION AND APPLICATION THEREOF” (SUNSHINE LAKE PHARMA CO., LTD., priority 2020, published 2023).
Like-named read-outs stand apart in the source and are kept apart here.

Key:
CTLL-2 cells = test: Inhibitory effect on CTLL-2 cell proliferation; assay type: cell-based; conditions: alamar blue, read-out: IC50 (nM) CTLL-2 (h)
Procedure: CTLL-2, P-STAT3 and TF-1 cells were seeded in a 96-well culture plate at a density of 20,000/well with 90 µL per well, and the blank well was an equal amount of complete medium. 10 ul of different compound dilutions were added to each plate row BC, DE, and FG, and 5% DMSO medium with equal volume of the compound was added to positive wells and negative wells, and the final concentration of DMSO was 0.5%. After incubating in a 37° C. incubator for 20 h, alamar blue was added, the plate was incubated for 4 h, the fluorescence intensity of each well under the conditions of […], 580 nm wavelength was measured, and the IC50 value was calculated.

JAK1/TYK2 = test: Cell level activity test of JAK1/TYK2 (IFN-α induced STAT3 phosphorylation in PBMC); assay type: cell-based; conditions: Homo sapiens; P-STAT3 by ELISA in PBMC, compound 1 h, IFN-α 5000 U/mL 15 min; read-out: IC50 nM (JAK 1 /TYK2)
[1] = Pharmacokinetic evaluation in rats after intravenous injection and oral administration; assay type: in vivo; conditions: rat, plasma; for AUC(0-t): read-out: PK AUClast; for Cmax: read-out: PK Cmax; for half-life: read-out: PK T½ (converted)
Procedure: The analytical LC/MS/MS system includes an Agilent 1200 series vacuum degasser, a binary syringe pump, an orifice plate autosampler, a column oven, and an Agilent G6430 triple quadrupole mass spectrometer with an electrospray ionization (ESI) source.
Agilent XDB-C18, 2.1 × 30 mm, 3.5 µM column was used to analysis, 5 µL sample was injected. Analytical conditions: Mobile phases were 0.1% formic acid in water (A) and 0.1% formic acid in methanol (B). The flow rate was 0.4 mL/min.
In addition, Agilent 6330 series LC/MS/MS spectrometer was used for analysis, equipped with G1312A binary syringe pump, G1367A automatic sampler and G1314C UV detector; LC/MS/MS spectrometer used ESI radiation source. Optimum analysis was achieved using standards with appropriate cation model processing and MRM conversion for each analyte. A Capcell MP-C18 column, 100 × 4.6 mm I.D., 5 µM (Phenomenex, Torrance, California, USA) was used during the analysis. Mobile phase was 5 mM ammonium acetate, 0.1% methanol in water (A): 5 mM ammonium acetate, 0.1% methanol in acetonitrile (B) (70/30, v/v); flow rate was 0.6 mL/min; column temperature was maintained at room temperature; 20 µL of sample was injected.
The present invention evaluates the pharmacokinetic studies of the compounds of the present invention in mice, rats, dogs or monkeys. The compounds of the present invention were administered in the form of aqueous solution or 2% HPMC + 1% Tween-80 aqueous solution, 5% DMSO + 5% saline solution, 4% MC or capsule. For intravenous administration, animals were dosed at about 0.5, 0.6, 1 or 2 mg/kg. The oral doses (p.o.) were 5 or 10 mg/kg for rats and mice, and 10 mg/kg for dogs and monkeys. Bloods (0.3 mL) were taken at time points 0.25, 0.5, 1.0, 2.0, 3.0, 4.0, 6.0, 8.0, 12 and 24 h and centrifuged at 3,000 or 4,000 rpm for 10 min. Plasma solutions were collected and stored at -20° C. or -70° C. until LC/MS/MS analysis as described above. […] Table 2 is the experimental results of the pharmacokinetic characteristics of the compounds provided in the examples of the present invention in rats.

CC(=O)Nc1cc2c(-c3ccc4c(n3)C3(CCOC3)OC4)cn(C)c2cn1 (stereo not drawn) [Example 2, N-(3-(4,5-Dihydro-2H,5′H-Spiro[Furan-3,7′-Furo[3,4-b]Pyridin]-2′-yl)-1-Methyl-1H-Pyrrolo[2,3-c]Pyridin-5-yl)Acetamide]
IC50 (CTLL-2 cells): > 10000 nM | IC50 (JAK1/TYK2): 95.8 nM | AUC(0-t) ([1]; IV 1 mg/kg): 1140 ng·h/mL | Cmax ([1]; IV 1 mg/kg): 1010 ng/mL | half-life ([1]; IV 1 mg/kg): 0.971 h | AUC(0-t) ([1]; PO 5 mg/kg): 9430 ng·h/mL | Cmax ([1]; PO 5 mg/kg): 1990 ng/mL | half-life ([1]; PO 5 mg/kg): 2.71 h | bioavailability ([1]; oral bioavailability, PO 5 mg/kg): 165%
